Experimental data from US20090215783A1, “COMPOSITION FOR INDUCTION OR INHIBITION OF STEM CELL DIFFERENTIATION” (CHOONGWAE PHARMA CORPORATION, priority 2006, published 2009).

How the values were obtained:
[1] = test system: Mouse embryonic stem (ES) cells, TC1; assay: Cardiomyogenesis modulating activity assay (alpha-MHC promoter EGFP, embryoid bodies, FACS/fluorescence microscopy); type: cell-based; settings: embryoid bodies treated for 5 days, FACS
Description: a. Cell culture: Mouse embryonic stem (ES) cells, TC1 derived from 129/S6 strain were cultured on irradiated feeder layer in the culture medium which is high-glucose DMEM (Gibco) BRL, Germany) supplemented with 15% FBS (Hyclone), 0.1 mM beta-mercaptoethanol, […] sodium pyruvate, 1 mM L-glutamine and 1× non-essential amino acids.
b. Establishment of alpha-MHC stably transformed ES cell line: A construct (FIG. 8) containing 1.8 kb promoter sequence of the mouse alpha-MHC gene between EcoRI and SalI sites of pEGFP-1 (Clontech Laboratories, Inc, CA, USA) was linearized at XhoI site, and was introduced into mouse ES cells, TC1, using the Gene Pulser II (BioRad, MA). A selection medium containing G418 was applied for two weeks from 24 hours after electroporation. The selected ES cell clones were harvested and expanded on the feeder cell layer. The green fluorescence-expressing clones when differentiated into cardiomyocytes were used in this experiment.
c. Cardiomyogenesis modulating activity assay: Embryoid body (EB) was formed by hanging drop culture using about a number of 600 (six hundred) ES cells for two days and it was further expanded by culturing in suspension condition on a Petri-dish for another two days. Then each EB was plated on a well of 96 well culture plates. Test compounds were dissolved in DMSO and diluted with culture media (final 0.05% DMSO) and EB was treated with test compound for 5 days. Culture medium was changed every three days after plating. Expression level of EGFP was measured with FACS (Beckman). For FACS analysis, differentiating cells were dissociated with trypsin. For the determination of the extent of differentiation, EB was observed and photographed with an inverted fluorescence microscope (Zeiss, Germany). Number of beating EBs was counted under the microscope and recorded once daily.

[2] = test system: human bone marrow derived-mesenchymal stem cells (hBMMSC); assay: Osteogenesis modulating activity assay by test compound alone (ALP activity); type: cell-based; settings: Homo sapiens, 168 h; hBMMSC, 20 μM test compound alone, six to seven days; read-out: Osteogenesis: fold change of ALP activity compared with DMSO control
Description: Cell culture: Human bone marrow derived-mesenchymal stem cells (hBMMSC) were isolated from normal subjects.
Osteogenesis modulating activity assay by test compound alone: hBMMSC were cultivated in the culture medium and cells were seeded into 96-well culture plates and test compounds were dissolved in DMSO and diluted with culture media (final 0.01% DMSO) and added into the media (final concentration of test compound was 20 μM) and cultured in the CO2 incubator (37° C., 5% CO2). Culture medium was changed every two days with fresh one and compound was treated again whenever medium was changed. Six to seven days after incubation, Alkaline phosphatase activity of cell lysates was measured by colorimetry. For the determination of mineralization within the cells, Von Kossa staining or Alizarin Red S assay was performed 10-14 days after incubation.

SMILES	Cardiomyogenesis: fold change of EGFP expression level compared with DMSO control [1] [fold]	fold induction at 20 µM [2]
COc1ccc(CN2C[C@H]3N(C(=O)CN(C)N3C(=O)NCc3ccccc3)[C@@H](c3ccccc3)C2=O)cc1 [#25]	1.78	0.6
CCCCNC(=O)N1[C@H]2CN(CCCCc3ccccc3)C(=O)[C@H](Cc3ccc(O)cc3)N2C(=O)CN1Cc1cccc(F)c1 [#40]	1.11	0.69
CCC(C)[C@H]1C(=O)N(CCC(c2ccccc2)c2ccccc2)C[C@H]2N1C(=O)N(C)N2C(=O)NCc1ccccc1 (some centres unmarked) [#103]	1.98	0.98
O=C1[C@H](Cc2ccc(O)cc2)N2C(=O)CN(Cc3ccccc3)N(C(=O)NCc3ccccc3)C2CN1Cc1cccc(F)c1 (some centres unmarked) [#53]	1.95	
CCCN1CC(=O)N2C(CN(CCC(C)C)C(=O)[C@@H]2CC(C)C)N1C(=O)NCc1ccccc1 (some centres unmarked) [#93]	0.57	0.63
CCCCNC(=O)N1[C@H]2CN(CCc3ccc(OC)cc3)C(=O)[C@H](CC(C)C)N2C(=O)CN1Cc1ccc(C)cc1 [#97]	0.71	0.54
CN1CC(=O)N2[C@@H](COCc3ccccc3)C(=O)N(CCc3ccccc3)C[C@@H]2N1C(=O)NCc1ccccc1 [#32]	0.95	0.94
CCCN1CC(=O)N2C(Cc3ccc(O)cc3)C(=O)N(CCC(C)C)CC2N1C(=O)NCc1ccccc1 (centres unmarked) [#92]	2.13	0.7
O=C1[C@H](Cc2ccc(F)cc2)N2C(=O)CN(Cc3ccccc3)N(C(=O)NCc3ccccc3)[C@H]2CN1CCc1ccc(Cl)cc1 [#80]	1.49	0.19
CCCCNC(=O)N1[C@H]2CN(CCCCc3ccccc3)C(=O)[C@H](C(C)CC)N2C(=O)CN1Cc1cccc(F)c1 (some centres unmarked) [#41]	2.15	0.6
C=CCN1CC(=O)N2[C@@H](Cc3ccc(O)cc3)C(=O)N(Cc3ccc(F)c4scnc34)C[C@@H]2N1C(=O)NCc1ccccc1F [#14]		0.29
CCCCNC(=O)N1[C@H]2CN(CCc3ccc(OC)cc3)C(=O)[C@H](Cc3ccc(O)cc3)N2C(=O)CN1Cc1ccc(C)cc1 [#96]	0.54	0.77
CCC(C)[C@H]1C(=O)N(Cc2ccc(OC)cc2)C[C@H]2N1C(=O)CN(C)N2C(=O)NCc1ccccc1 (some centres unmarked) [#23]	1.69	0.86
COc1ccc(CN2C[C@H]3N(C(=O)CN(C)N3C(=O)NCc3ccccc3)[C@@H](Cc3ccccc3)C2=O)cc1 [#22]	1.16	0.7
CC[C@H]1C(=O)N(Cc2cccc(C(F)(F)F)c2)C[C@H]2N1C(=O)CN(Cc1ccc(F)cc1)N2C(=O)NCc1ccccc1 [#68]	0.69	0.91
CN1CC(=O)N2[C@@H](Cc3ccc(O)cc3)C(=O)N(Cc3cccc4[nH]ncc34)C[C@@H]2N1C(=O)NCc1ccccc1 [#11]	0.07	0.3
CC(C)[C@H]1C(=O)N(Cc2cccc(Br)c2)C[C@H]2N1C(=O)N(C)N2C(=O)NCc1ccccc1 [#106]	1.25	0.37
CC(C)C[C@@H]1C(=O)N(Cc2cccc(C(F)(F)F)c2)C[C@@H]2N1C(=O)CN(Cc1ccc(F)cc1)N2C(=O)NCc1ccccc1 [#63]	0.47	0.41
C=CCN1CC(=O)N2[C@@H](Cc3ccc(F)cc3)C(=O)N(Cc3ccc(F)cc3)C[C@@H]2N1C(=O)NCc1ccccc1 [#85]	1.65	0.62
Cc1ccc(C[C@H]2C(=O)N(Cc3cccc(C(F)(F)F)c3)C[C@H]3N2C(=O)CN(Cc2ccc(F)cc2)N3C(=O)NCc2ccccc2)cc1 [#67]	1.50	0.8

SMILES	Cardiomyogenesis: fold change of EGFP expression level compared with DMSO control [1] [fold]	fold induction at 20 µM [2]
CCC[C@H]1C(=O)N(Cc2ccc(OC)cc2)C[C@H]2N1C(=O)CN(C)N2C(=O)NCc1ccccc1 [#24]	1.57	0.85
CN1CC(=O)N2[C@@H](Cc3ccc(O)c(C(C)(C)C)c3)C(=O)N(Cc3cccc4cccnc34)C[C@@H]2N1C(=O)NCc1ccccc1 [#7]	1.22	0.51
COc1ccc(CN2C[C@H]3N(C(=O)CN(C)N3C(=O)NCc3ccccc3)[C@@H](CC(C)C)C2=O)cc1 [#20]	2.17	1.06
C=CCN1CC(=O)N2[C@@H](Cc3ccc(OCc4ccccc4)cc3)C(=O)N(Cc3ccc(F)cc3)C[C@@H]2N1C(=O)NCc1ccccc1 [#83]	2.02	0.36
CN1CC(=O)N2[C@@H](Cc3ccc(OCc4ccccc4)cc3)C(=O)N(CCc3ccccc3)C[C@@H]2N1C(=O)NCc1ccccc1 [#35]	1.03	0.94
CC(C)C[C@H]1C(=O)N(C2CCCCC2)C[C@H]2N1C(=O)N(C)N2C(=O)NCc1ccccc1 [#105]	1.12	0.8
CN1CC(=O)N2C(Cc3ccc(Oc4ccccc4)cc3)C(=O)N(Cc3cccc4ccccc34)CC2N1C(=O)NCc1ccccc1 (centres unmarked) [#1]	1.21	0.36
O=C(O)C[C@H]1C(=O)N(Cc2cccc(F)c2)C[C@H]2N1C(=O)CN(Cc1ccccc1)N2C(=O)NCc1ccccc1 [#59]	0.48	
CCCCNC(=O)N1[C@H]2CN([C@@H](C)c3ccccc3)C(=O)[C@H](Cc3ccccc3)N2C(=O)CN1Cc1ccc(C)cc1 [#47]	2.32	
CCCCNC(=O)N1[C@H]2CN([C@@H](C)c3ccccc3)C(=O)[C@H](Cc3ccc(O)cc3)N2C(=O)CN1Cc1ccc(C)cc1 [#45]		1.08
CC(C)C[C@H]1C(=O)N(Cc2cccc(F)c2)C[C@H]2N1C(=O)CN(Cc1ccccc1)N2C(=O)NCc1ccccc1 [#54]	1.42	
CCCCNC(=O)N1[C@H]2CN([C@@H](C)c3ccccc3)C(=O)[C@H](CCC(=O)O)N2C(=O)CN1Cc1ccc(C)cc1 [#50]	0.26	
O=C1[C@H](Cc2ccccc2)N2C(=O)CN(Cc3ccccc3)N(C(=O)NCc3ccccc3)[C@H]2CN1Cc1cccc(F)c1 [#56]	1.08	
O=C1[C@H](COCc2ccccc2)N2C(=O)CN(Cc3ccc(F)cc3)N(C(=O)NCc3ccccc3)C2CN1Cc1cccc(C(F)(F)F)c1 (some centres unmarked) [#62]	0.89	
O=C1[C@H](c2ccccc2)N2C(=O)CN(Cc3ccccc3)N(C(=O)NCc3ccccc3)[C@H]2CN1Cc1cccc(F)c1 [#60]	1.23	
CCCCNC(=O)N1[C@H]2CN([C@@H](C)c3ccccc3)C(=O)[C@H](CC(=O)O)N2C(=O)CN1Cc1ccc(C)cc1 [#49]	1.14	
CCCCNC(=O)N1[C@H]2CN([C@@H](C)c3ccccc3)C(=O)[C@H](CCC)N2C(=O)CN1Cc1ccc(C)cc1 [#48]	1.02	
C#CCN1CC(=O)N2C(Cc3ccc(Cl)cc3)C(=O)N(CCCCCCC)C[C@@H]2N1C(=O)NCc1ccccc1 (some centres unmarked) [#52]	1.99	
O=C1[C@@H](Cc2ccccc2)N2C(=O)CN(Cc3ccc(F)cc3)N(C(=O)NCc3ccccc3)[C@@H]2CN1Cc1cccc(C(F)(F)F)c1 [#61]	1.06	
CCC[C@H]1C(=O)N(Cc2cccc(F)c2)C[C@H]2N1C(=O)CN(Cc1ccccc1)N2C(=O)NCc1ccccc1 [#58]	1.91	
